Values of other authors in patent US20050124598A1, “Antibiotic compounds” (priority 2001, published 2005).

Molecular target: PBP2a (Staphylococcus aureus, UniProt P07944)
Settings: reported β-lactam inhibitors, literature values

| IC50 for PBP2a [µg/mL] | Structure (SMILES) |
| --- | --- |
| 0.58 | NC(=O)C[n+]1ccc(S/C=C/C2=C(C(=O)[O-])N3C(=O)C(NC(=O)/C(=N\O)c4csc(N)n4)C3SC2)cc1 (centres unmarked) [TOC-39] |
| 0.5 | NCCSCc1cnccc1SC1=C(C(=O)O)N2C(=O)[C@@H](NC(=O)/C(=N\O)c3nc(N)sc3Cl)[C@H]2SC1 [MC-02479] |
